28 molecules from patent US9187464B2, “TRPV4 antagonists” (GlaxoSmithKline Intellectual Property (No. 2) Limited, priority 2011, dated 2015) can be followed below.

The assay addresses T1, human TRPV4 (Homo sapiens, UniProt Q9HBA0).
T1 construct: expressed in transfected cells; host or cells: HEK-293-MSR-II cells transduced with 1% BacMam virus
The assay can be described thus: Ligand-gated assay (Fluo4 calcium, FLIPR; inhibition of agonist-induced activation). The class given is cell-based. The note with it: HEK-293-MSR-II cells transduced with BacMam human TRPV4; agonist at EC80. A digest of the protocol: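 Agonist (EC80) response read on FLIPR as Fluo-4 (2 uM) fluorescence after 10-min room-temperature compound exposure in HBSS/HEPES pH 7.4 with 0.01% Chaps. Cells: HEK-293-MSR-II expressing human TRPV4 via BacMam; output is IC50 of inhibition.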

T1 sequence (Q9HBA0 whole entry): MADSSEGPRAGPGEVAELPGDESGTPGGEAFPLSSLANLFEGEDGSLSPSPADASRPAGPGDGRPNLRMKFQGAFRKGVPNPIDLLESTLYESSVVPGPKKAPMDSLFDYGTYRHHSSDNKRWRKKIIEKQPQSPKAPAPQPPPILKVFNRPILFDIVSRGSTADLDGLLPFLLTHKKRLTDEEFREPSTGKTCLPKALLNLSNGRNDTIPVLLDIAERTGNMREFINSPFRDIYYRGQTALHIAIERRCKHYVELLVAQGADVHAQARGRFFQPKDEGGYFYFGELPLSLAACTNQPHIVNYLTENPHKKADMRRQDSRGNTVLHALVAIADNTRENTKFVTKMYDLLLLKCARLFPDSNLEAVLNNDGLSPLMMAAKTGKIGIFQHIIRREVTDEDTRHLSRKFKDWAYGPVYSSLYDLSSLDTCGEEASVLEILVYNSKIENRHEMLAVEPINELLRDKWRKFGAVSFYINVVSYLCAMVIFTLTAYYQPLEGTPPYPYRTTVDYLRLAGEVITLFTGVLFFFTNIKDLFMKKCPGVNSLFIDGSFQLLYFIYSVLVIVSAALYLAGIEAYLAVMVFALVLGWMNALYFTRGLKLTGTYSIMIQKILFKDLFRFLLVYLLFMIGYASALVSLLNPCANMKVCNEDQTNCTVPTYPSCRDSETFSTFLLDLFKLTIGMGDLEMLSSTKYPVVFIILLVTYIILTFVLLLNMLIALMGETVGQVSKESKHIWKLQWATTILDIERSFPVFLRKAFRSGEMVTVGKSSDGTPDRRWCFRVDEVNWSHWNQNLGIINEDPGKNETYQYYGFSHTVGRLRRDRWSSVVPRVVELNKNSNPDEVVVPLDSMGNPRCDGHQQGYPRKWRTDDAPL

For `Cc1cc(Cl)ncc1N1C[C@@]2(CCC[C@H](Cn3cnc4ccc(C#N)cc43)C2)OC1=O` [Example 120, 1-(((5S,7S)-3-(6-chloro-4-methylpyridin-3-yl)-2-oxo-1-oxa-3-azaspiro[4.5]decan-7-yl)methyl)-1H-benzo[d]imidazole-6-carbonitrile], the 50% inhibitory concentration (IC50) fell in the range of 0.1 to 10 nM. The figure for `Cc1cc(Cl)cnc1N1C[C@@]2(CCC[C@](C)(Cn3cnc4ccc(C#N)cc43)C2)OC1=O` [Example 121, 1-(((5S,7S)-3-(5-chloro-3-methylpyridin-2-yl)-7-methyl-2-oxo-1-oxa-3-azaspiro[4.5]decan-7-yl)methyl)-1H-benzo[d]imidazole-6-carbonitrile] is 0.1 to 10 nM; for `COc1cc(Cl)ncc1N1C[C@@]2(CCC[C@](C)(Cn3cnc4ccc(C#N)cc43)C2)OC1=O` [Example 122, 1-(((5S,7S)-3-(6-chloro-4-methoxypyridin-3-yl)-7-methyl-2-oxo-1-oxa-3-azaspiro[4.5]decan-7-yl)methyl)-1H-benzo[d]imidazole-6-carbonitrile] it is 0.1 to 10 nM. The value for `COc1cc(Cl)ncc1N1C[C@@]2(CCC[C@H](Cn3cnc4ccc(C#N)cc43)C2)OC1=O` [Example 123, 1-(((5S,7S)-3-(6-chloro-4-methoxypyridin-3-yl)-2-oxo-1-oxa-3-azaspiro[4.5]decan-7-yl)methyl)-1H-benzo[d]imidazole-6-carbonitrile] was 0.1 to 10 nM; that for `Cc1nc(C(F)(F)F)ncc1N1C[C@@]2(CCC[C@H](Cn3cnc4ccc(C#N)cc43)C2)OC1=O` [Example 124, 1-(((5S,7S)-3-(4-methyl-2-(trifluoromethyl)pyrimidin-5-yl)-2-oxo-1-oxa-3-azaspiro[4.5]decan-7-yl)methyl)-1H-benzo[d]imidazole-6-carbonitrile] was 10 to 50 nM; that for `CCOc1cc(C)c(N2C[C@@]3(CCC[C@H](Cn4cnc5cc(F)c(C#N)cc54)C3)OC2=O)cn1` [Example 125, 1-(((5S,7S)-3-(6-ethoxy-4-methylpyridin-3-yl)-2-oxo-1-oxa-3-azaspiro[4.5]decan-7-yl)methyl)-5-fluoro-1H-benzo[d]imidazole-6-carbonitrile] was 0.1 to 10 nM. Take `COc1nc(C)ccc1N1C[C@@]2(CCC[C@](C)(Cn3cnc4ccc(C#N)cc43)C2)OC1=O` [Example 126, 1-(((5S,7S)-3-(2-methoxy-6-methylpyridin-3-yl)-7-methyl-2-oxo-1-oxa-3-azaspiro[4.5]decan-7-yl)methyl)-1H-benzo[d]imidazole-6-carbonitrile]: the IC50 is 0.1 to 10 nM. The value for `COc1cc(C)cnc1N1C[C@@]2(CCC[C@](C)(Cn3cnc4ccc(C#N)cc43)C2)OC1=O` [Example 127, 1-(((5S,7S)-3-(3-methoxy-5-methylpyridin-2-yl)-7-methyl-2-oxo-1-oxa-3-azaspiro[4.5]decan-7-yl)methyl)-1H-benzo[d]imidazole-6-carbonitrile] was 10 to 50 nM; that for `Cc1cnc(N2C[C@@]3(CCC[C@](C)(Cn4cnc5ccc(C#N)cc54)C3)OC2=O)c(Cl)c1` [Example 128, 1-(((5S,7S)-3-(3-chloro-5-methylpyridin-2-yl)-7-methyl-2-oxo-1-oxa-3-azaspiro[4.5]decan-7-yl)methyl)-1H-benzo[d]imidazole-6-carbonitrile] was 0.1 to 10 nM; that for `CCc1cccnc1N1C[C@@]2(CCC[C@](C)(Cn3cnc4ccc(C#N)cc43)C2)OC1=O` [Example 129, 1-(((5S,7S)-3-(3-ethylpyridin-2-yl)-7-methyl-2-oxo-1-oxa-3-azaspiro[4.5]decan-7-yl)methyl)-1H-benzo[d]imidazole-6-carbonitrile] was 10 to 50 nM. The value for `Cc1cnc(N2C[C@@]3(CCC[C@](C)(Cn4cnc5ccc(C#N)cc54)C3)OC2=O)c(C)n1` [Example 130, 1-(((5S,7S)-3-(3,5-dimethylpyrazin-2-yl)-7-methyl-2-oxo-1-oxa-3-azaspiro[4.5]decan-7-yl)methyl)-1H-benzo[d]imidazole-6-carbonitrile] was 50 to 500 nM; that for `Cc1nc(C(F)(F)F)cnc1N1C[C@@]2(CCC[C@H](Cn3cnc4ccc(C#N)cc43)C2)OC1=O` [Example 131, 1-(((5S,7S)-3-(3-methyl-5-(trifluoromethyl)pyrazin-2-yl)-2-oxo-1-oxa-3-azaspiro[4.5]decan-7-yl)methyl)-1H-benzo[d]imidazole-6-carbonitrile] was 50 to 500 nM. The value for `COc1ncc(N2C[C@@]3(CCC[C@](C)(Cn4cnc5ccc(C#N)cc54)C3)OC2=O)cc1C` [Example 132, 1-(((5S,7S)-3-(6-methoxy-5-methylpyridin-3-yl)-7-methyl-2-oxo-1-oxa-3-azaspiro[4.5]decan-7-yl)methyl)-1H-benzo[d]imidazole-6-carbonitrile] was 0.1 to 10 nM. For `CC(C)(C#N)c1ccc(N2C[C@@]3(CCC[C@](C)(Cn4cnc5ccc(C#N)cc54)C3)OC2=O)cn1` [Example 133, 1-(((5S,7S)-3-(6-(2-cyanopropan-2-yl)pyridin-3-yl)-7-methyl-2-oxo-1-oxa-3-azaspiro[4.5]decan-7-yl)methyl]-1H-benzo[d]imidazole-6-carbonitrile], the IC50 was 0.1 to 10 nM. The figure for `CC(C)(C)c1ncc(N2C[C@@]3(CCC[C@](C)(Cn4cnc5ccc(C#N)cc54)C3)OC2=O)cn1` [Example 134, 1-(((5S,7S)-3-(2-(tert-butyl)pyrimidin-5-yl)-7-methyl-2-oxo-1-oxa-3-azaspiro[4.5]decan-7-yl)methyl)-1H-benzo[d]imidazole-6-carbonitrile] is 0.1 to 10 nM; for `COc1ccc(N2C[C@@]3(CCC[C@](C)(Cn4cnc5ccc(C#N)cc54)C3)OC2=O)nc1` [Example 135, 1-({(5S,7S)-7-methyl-3-[5-(methyloxy)-2-pyridinyl]-2-oxo-1-oxa-3-azaspiro[4.5]dec-7-yl}methyl)-1H-benzimidazole-6-carbonitrile] it is 50 to 500 nM.

`CCOc1ccc(N2C[C@@]3(CCC[C@](C)(Cn4cnc5ccc(C#N)cc54)C3)OC2=O)nn1` [Example 136, 1-({(5S,7S)-3-[6-(ethyloxy)-3-pyridazinyl]-7-methyl-2-oxo-1-oxa-3-azaspiro[4.5]dec-7-yl}methyl)-1H-benzimidazole-6-carbonitrile]: the concentration for half-maximal inhibition (IC50) is 50 to 500 nM. On to `C[C@]1(Cn2cnc3ccc(C#N)cc32)CCC[C@@]2(CN(c3ncccc3Cl)C(=O)O2)C1` [Example 137, 1-{[(5S,7S)-3-(3-chloro-2-pyridinyl)-7-methyl-2-oxo-1-oxa-3-azaspiro[4.5]dec-7-yl]methyl}-1H-benzimidazole-6-carbonitrile], for which the IC50 is 10 to 50 nM. The figure for `COc1cccnc1N1C[C@@]2(CCC[C@](C)(Cn3cnc4ccc(C#N)cc43)C2)OC1=O` [Example 138, 1-({(5S,7S)-7-methyl-3-[3-(methyloxy)-2-pyridinyl]-2-oxo-1-oxa-3-azaspiro[4.5]dec-7-yl}methyl)-1H-benzimidazole-6-carbonitrile] is 50 to 500 nM; for `C[C@]1(Cn2cnc3ccc(C#N)cc32)CCC[C@@]2(CN(c3ccc(C(F)(F)F)nc3)C(=O)O2)C1` [Example 139, 1-({(5S,7S)-7-methyl-2-oxo-3-[6-(trifluoromethyl)-3-pyridinyl]-1-oxa-3-azaspiro[4.5]dec-7-yl}methyl)-1H-benzimidazole-6-carbonitrile] it is 0.1 to 10 nM; for `Cc1ccc(N2C[C@@]3(CCC[C@](C)(Cn4cnc5ccc(C#N)cc54)C3)OC2=O)cn1` [Example 140, 1-(((5S,7S)-7-methyl-3-(6-methylpyridin-3-yl)-2-oxo-1-oxa-3-azaspiro[4.5]decan-7-yl)methyl)-1H-benzo[d]imidazole-6-carbonitrile] it is 50 to 500 nM. `COc1cc(OC)c(N2C[C@@]3(CCC[C@H](Cn4cnc5ccc(C#N)cc54)C3)OC2=O)cn1` [Example 141, 1-({(5S,7S)-3-[4,6-bis(methyloxy)-3-pyridinyl]-2-oxo-1-oxa-3-azaspiro[4.5]dec-7-yl}methyl)-1H-benzimidazole-6-carbonitrile]: the 50% inhibitory concentration (IC50) was in the range of 10 to 50 nM. The figure for `CC(C)c1ccc(N2C[C@@]3(CCC[C@H](Cn4cnc5ccc(C#N)cc54)C3)OC2=O)cn1` [Example 142, 1-({(5S,7S)-3-[6-(1-methylethyl)-3-pyridinyl]-2-oxo-1-oxa-3-azaspiro[4.5]dec-7-yl}methyl)-1H-benzimidazole-6-carbonitrile] is 10 to 50 nM; for `COc1cc(C)c(N2C[C@@]3(CCC[C@](CO)(Cn4cnc5ccc(C#N)cc54)C3)OC2=O)cn1` [Example 143, 1-((7-(hydroxymethyl)-3-(6-methoxy-4-methylpyridin-3-yl)-2-oxo-1-oxa-3-azaspiro[4.5]decan-7-yl)methyl)-1H-benzo[d]imidazole-6-carbonitrile] it is 10 to 50 nM.

For the molecule `C[C@]1(Cn2cnc3ccc(C#N)cc32)CCC[C@@]2(CN(c3cnccc3C(F)(F)F)C(=O)O2)C1` [Example 144, 1-(((5S,7S)-7-methyl-2-oxo-3-(4-(trifluoromethyl)pyridin-3-yl)-1-oxa-3-azaspiro[4.5]decan-7-yl)methyl)-1H-benzo[d]imidazole-6-carbonitrile], the IC50 lay in the range of 0.1 to 10 nM.

As for `CN(C)c1ncc(N2C[C@@]3(CCC[C@](C)(Cn4cnc5ccc(C#N)cc54)C3)OC2=O)cn1` [Example 145, 1-(((5S,7S)-3-(2-(dimethylamino)pyrimidin-5-yl)-7-methyl-2-oxo-1-oxa-3-azaspiro[4.5]decan-7-yl)methyl)-1H-benzo[d]imidazole-6-carbonitrile], the IC50 is 10 to 50 nM. As to `Cc1ccncc1N1C[C@@]2(CCC[C@](C)(Cn3cnc4ccc(C#N)cc43)C2)OC1=O` [Example 146, 1-(((5S,7S)-7-methyl-3-(4-methylpyridin-3-yl)-2-oxo-1-oxa-3-azaspiro[4.5]decan-7-yl)methyl)-1H-benzo[d]imidazole-6-carbonitrile], the IC50 was 0.1 to 10 nM.

With `CC(C)(O)c1cnc(N2C[C@@]3(CCC[C@](C)(Cn4cnc5ccc(C#N)cc54)C3)OC2=O)cn1` [Example 147, 1-(((5S,7S)-3-(5-(2-hydroxypropan-2-yl)pyrazin-2-yl)-7-methyl-2-oxo-1-oxa-3-azaspiro[4.5]decan-7-yl)methyl)-1H-benzo[d]imidazole-6-carbonitrile], the IC50 is 0.1 to 10 nM.

By IC50 is commonly meant the concentration at which inhibition is half-maximal.
